Data taken from US20260365634A1, “HERBICIDAL PYRAZOLE COMPOUNDS” (SYNGENTA CROP PROTECTION AG, priority 2022, published 2026).

How the values were obtained:
Assay type in all cases: in vivo
Settings in all cases: 250 g/ha, evaluated after 13 days
[1] = test system: Amaranthus retoflexus (AMARE); experiment: Post-emergence herbicidal glasshouse test
Experimental: (§1) Seeds of a variety of test species are sown in standard soil in pots Amaranthus palmeri (AMAPA), Amaranthus retoflexus (AMARE), Echinochloa crus-galli (ECHCG), Ipomoea hederacea (IPOHE), Setaria faberi (SETFA). After cultivation for one day (pre-emergence) or after 8 days cultivation (post-emergence) under controlled conditions in a glasshouse (at 24/16 °C, day/night; 14 hours light; 65% humidity), the plants are sprayed with an aqueous spray solution derived from the formulation of the technical active ingredient in acetone/water (50:50) solution containing 0.5% Tween 20 (polyoxyethelyene sorbitan monolaurate, CAS RN 9005-64-5). Compounds are applied at 250 g/ha unless otherwise stated. The test plants are then grown in a glasshouse under controlled conditions in a glasshouse (at 24/16 °C, day/night; 14 hours light; 65% humidity) and watered twice daily. After 13 days for pre and post-emergence, the test is evaluated for the percentage damage caused to the plant. The biological activities are shown in the following table on a five-point scale (5=81-100%; 4=61-80%; 3=41-60%; 2=21-40%; 1=0-20%).

Setaria faberi (SETFA) [2] = experiment: Post-emergence herbicidal glasshouse test
Experimental: as §1

[3] = test system: Echinochloa crus-galli (ECHCG); experiment: Post-emergence herbicidal glasshouse test
Experimental: as §1

[4] = test system: Amaranthus palmeri (AMAPA); experiment: Post-emergence herbicidal glasshouse test
Experimental: as §1

[5] = test system: Ipomoea hederacea (IPOHE); experiment: Post-emergence herbicidal glasshouse test
Experimental: as §1

[6] = test system: Amaranthus retoflexus (AMARE); experiment: Pre-emergence herbicidal glasshouse test
Experimental: as §1

Setaria faberi (SETFA) [7] = experiment: Pre-emergence herbicidal glasshouse test
Experimental: as §1

[8] = test system: Echinochloa crus-galli (ECHCG); experiment: Pre-emergence herbicidal glasshouse test
Experimental: as §1

[9] = test system: Amaranthus palmeri (AMAPA); experiment: Pre-emergence herbicidal glasshouse test
Experimental: as §1

[10] = test system: Ipomoea hederacea (IPOHE); experiment: Pre-emergence herbicidal glasshouse test
Experimental: as §1

Structure (SMILES)	percentage damage caused to the plant (five-point scale), AMARE [1]	percentage damage caused to the plant (five-point scale), SETFA (Setaria faberi (SETFA) [2])	percentage damage caused to the plant (five-point scale), ECHCG [3]	percentage damage caused to the plant (five-point scale), AMAPA [4]	percentage damage caused to the plant (five-point scale), IPOHE [5]	percentage damage caused to the plant (five-point scale), AMARE [6]	percentage damage caused to the plant (five-point scale), SETFA (Setaria faberi (SETFA) [7])	percentage damage caused to the plant (five-point scale), ECHCG [8]	percentage damage caused to the plant (five-point scale), AMAPA [9]	percentage damage caused to the plant (five-point scale), IPOHE [10]
C=CCCn1nc(C(F)F)cc1Cc1ncc(Cl)cn1 [Compound 1.021]	3 (41-60%)	1 (0-20%)	1 (0-20%)	2 (21-40%)	1 (0-20%)	5 (81-100%)	3 (41-60%)	2 (21-40%)	5 (81-100%)	1 (0-20%)
N#CC1(Cn2nc(C(F)(F)F)cc2Cc2ncc(Cl)cn2)CC1 [Compound 1.022]	4 (61-80%)	1 (0-20%)	1 (0-20%)	4 (61-80%)	4 (61-80%)	5 (81-100%)	4 (61-80%)	3 (41-60%)	4 (61-80%)	5 (81-100%)
CS(=O)(=O)CCn1nc(C(F)F)cc1Cc1ncc(Cl)cn1 [Compound 1.023]	2 (21-40%)	1 (0-20%)	1 (0-20%)	2 (21-40%)	3 (41-60%)	1 (0-20%)	1 (0-20%)	1 (0-20%)	1 (0-20%)	2 (21-40%)
FC(F)c1cc(Cc2ncc(Cl)cn2)n(CCBr)n1 [Compound 1.025]	1 (0-20%)	1 (0-20%)	1 (0-20%)	1 (0-20%)	1 (0-20%)	4 (61-80%)	1 (0-20%)	2 (21-40%)	4 (61-80%)	1 (0-20%)
C=CCn1nc(C(F)F)cc1Cc1ncc(Cl)cn1 [Compound 1.026]	1 (0-20%)	1 (0-20%)	1 (0-20%)	1 (0-20%)	1 (0-20%)	1 (0-20%)	1 (0-20%)	1 (0-20%)	1 (0-20%)	1 (0-20%)
N#CC1(Cn2nc(C(F)F)cc2Cc2ccc(Cl)cc2)CC1 [Compound 1.027]	1 (0-20%)	1 (0-20%)	1 (0-20%)	1 (0-20%)	1 (0-20%)	1 (0-20%)	2 (21-40%)	1 (0-20%)	1 (0-20%)	2 (21-40%)
FC(F)(F)c1cc(Cc2ncc(Cl)cn2)n(C2CCCC2)n1 [Compound 1.028]	4 (61-80%)	2 (21-40%)	2 (21-40%)	2 (21-40%)	3 (41-60%)	5 (81-100%)	5 (81-100%)	2 (21-40%)	5 (81-100%)	1 (0-20%)
CC(C)(C#N)CCCn1nc(C(F)(F)F)cc1Cc1ncc(Cl)cn1 [Compound 1.029]	4 (61-80%)	2 (21-40%)	3 (41-60%)	3 (41-60%)	3 (41-60%)	5 (81-100%)	3 (41-60%)	3 (41-60%)	4 (61-80%)	5 (81-100%)
CCSCCn1nc(C(F)F)cc1Cc1ncc(Cl)cn1 [Compound 1.030]	5 (81-100%)	4 (61-80%)	2 (21-40%)	5 (81-100%)	5 (81-100%)	1 (0-20%)	1 (0-20%)	1 (0-20%)	1 (0-20%)	1 (0-20%)
FC(F)CCn1nc(C(F)(F)Cl)cc1Cc1ncc(Cl)cn1 [Compound 1.031]	4 (61-80%)	4 (61-80%)	3 (41-60%)	4 (61-80%)	4 (61-80%)	5 (81-100%)	5 (81-100%)	5 (81-100%)	5 (81-100%)	5 (81-100%)
FC(F)(Cl)c1cc(Cc2ncc(Cl)cn2)n(CCC2CC2)n1 [Compound 1.032]	5 (81-100%)	5 (81-100%)	4 (61-80%)	5 (81-100%)	4 (61-80%)	5 (81-100%)	5 (81-100%)	5 (81-100%)	5 (81-100%)	5 (81-100%)
C=Cn1nc(C(F)F)cc1Cc1ncc(Cl)cn1 [Compound 1.037]	4 (61-80%)	2 (21-40%)	2 (21-40%)	3 (41-60%)	2 (21-40%)	5 (81-100%)	1 (0-20%)	1 (0-20%)	5 (81-100%)	3 (41-60%)
FC(F)c1cc(Cc2ncc(Cl)cn2)n(CCn2ccc(C(F)(F)F)n2)n1 [Compound 1.038]	1 (0-20%)	1 (0-20%)	1 (0-20%)	1 (0-20%)	1 (0-20%)	1 (0-20%)	2 (21-40%)	2 (21-40%)	2 (21-40%)	1 (0-20%)
